Data taken from patent publication US20240091183A1 (Syros Pharmaceuticals, Inc., priority 2021, published 2024).

Assay: population PK model and simulations of flat versus BSA-based dosing of tamibarotene
Set-up: species or system human
Settings: population PK analysis of prior study, 6 mg/m2/day in 2 divided doses
Protocol: The dose and regimen used in a prior study (6 mg/m^2/day in 2 divided doses) were based on the dose and regimen approved in Japan for the treatment of APL. […] Based on this analysis, the fixed dosing regimens described herein, including the 6 mg BID flat dosing regimen, are expected to provide similar PK exposures compared to the 6 mg/m^2/day (in 2 divided doses) regimen used in the prior study.
A population PK model was developed using patient characteristics, and we assessed the impact of weight on drug clearance. Simulations were conducted to assess the performance of “flat” versus BSA-based dosing. Simulated AUC (area-under-the-curve) from the model was used to establish relationship of exposure with efficacy and safety; we analyzed exposure and achievement of CR/CRi and exposure with adverse events equal to or greater than those of grade 3.

**Q.** For Tamibarotene, which “association of body size with clearance” value is on record?
**A.** Its value is “not significantly associated”.
